Each block holds one compound with its values, some of them ahead of it.
What was measured:
[1] = Chromatographic hydrophobicity index, log D of the compound at pH 7.4 by HPLC method; format: physicochemical; settings: buffer
[2] = Oral bioavailability in Balb/c mouse at 10 mg/kg by UHPLC and ESI mass spectrometry; format: ADME, organism-based; settings: in vivo
[3] = in vivo; settings: cynomolgus monkey, po, 5 mg/kg
[4] = Plasma clearance in Sprague-Dawley rat at 1 mg/kg, iv or 5 mg/kg, po by UHPLC and ESI mass spectrometry; format: ADME, organism-based
[5] = Volume of distribution at steady state in Sprague-Dawley rat at 1 mg/kg, iv or 5 mg/kg, po by UHPLC and ESI mass spectrometry; format: ADME, organism-based; settings: in vivo, read-out: Vdss
[6] = Cmax in Sprague-Dawley rat at 5 mg/kg, po by UHPLC and ESI mass spectrometry; format: ADME, organism-based; parameters: dose 5 mg/kg, route oral; settings: in vivo
[7] = Cmax in cynomolgus monkey at 5 mg/kg, po by UHPLC and ESI mass spectrometry; format: ADME, organism-based, Macaca fascicularis; parameters: dose 5 mg/kg, route oral; settings: in vivo
[8] = Oral bioavailability in Sprague-Dawley rat at 5 mg/kg by UHPLC and ESI mass spectrometry; format: ADME, organism-based; settings: in vivo
[9] = system: Cynomolgus monkey; experiment: Plasma clearance in cynomolgus monkey at 1 mg/kg, iv or 5 mg/kg, po relative to liver blood flow; format: ADME, organism-based, Macaca fascicularis; settings: in vivo
[10] = Permeability in human Caco2 cells at 10 uM after 1 hr; format: ADME, cell-based; settings: Caco-2, read-out: permeability
[11] = Stability in cynomolgus monkey liver microsomes at 10 uM up to 90 mins in presence of NADPH by LC/MS analysis; format: ADME, Macaca fascicularis, microsome
[12] = Drug metabolism in Sprague-Dawley rat hepatocytes assessed as 1-(6-(4-fluorobenzyl)-3,3-dimethyl-2,3-dihydro-1H-pyrrolo[3,2-b]pyridin-1-yl)-2-((2S,5R)-2-((2-hydroxyethylamino)methyl)-5-methylpiperazin-1-yl)ethanone formation at 10 uM up to 90 mins by LC-MS analysis; format: ADME, cell-based, Hepatocyte
[13] = Drug metabolism in Sprague-Dawley rat hepatocytes assessed as 2-((2S,5R)-2-(aminomethyl)-5-methylpiperazin-1-yl)-1-(6-(4-fluorobenzyl)-3,3-dimethyl-2,3-dihydro-1H-pyrrolo[3,2-b]pyridin-1-yl)ethanone formation at 10 uM up to 90 mins by LC-MS analysis; format: ADME, cell-based, Hepatocyte
[14] = Drug metabolism in Sprague-Dawley rat hepatocytes assessed as 2-((R)-1-amino-3-((R)-3-methylmorpholino)propan-2-ylamino)-1-(6-(4-fluorobenzyl)-3,3-dimethyl-2,3-dihydro-1H-pyrrolo[3,2-b]pyridin-1-yl)ethanone formation at 10 uM up to 90 mins by LC-MS analysis; format: ADME, cell-based, Hepatocyte
[15] = Drug metabolism in CD-1 mouse hepatocytes assessed as oxidation metabolite formation at 10 uM up to 90 mins by LC-MS analysis; format: ADME, cell-based, Hepatocyte
[16] = Drug metabolism in human hepatocytes assessed as oxidation metabolite formation at 10 uM up to 90 mins by LC-MS analysis; format: ADME, cell-based, Hepatocyte
[17] = Drug metabolism in Sprague-Dawley rat hepatocytes assessed as oxidation metabolite formation at 10 uM up to 90 mins by LC-MS analysis; format: ADME, cell-based, Hepatocyte
[18] = Drug metabolism in cynomolgus monkey hepatocytes assessed as oxidation metabolite formation at 10 uM up to 90 mins by LC-MS analysis; format: ADME, cell-based, Macaca fascicularis, Hepatocyte
[19] = in vivo; settings: cynomolgus monkey, plasma, iv, 1 mg/kg
[20] = in vivo; settings: cynomolgus monkey, iv, 1 mg/kg
[21] = Drug level in tumor of human MDA-MB-231 cells xenografted Balb/c SCID mouse at 20 mg/kg, po administered as single dose measured up to 72 hrs by UPLC analysis; format: ADME, organism-based, Neoplasm; settings: in vivo
[22] = system: MDA-MB-231; experiment: cells; settings: Homo sapiens, MDA-MB-231, 72 h
[23] = molecular target: hERG (KCNH2) (Homo sapiens, UniProt Q12809); experiment: in vitro; settings: CHO-K1 cells expressing human ERG
[24] = molecular target: CYP3A4 (Homo sapiens, UniProt P08684); experiment: in vitro; settings: human CYP3A4 supersomes
[25] = Drug level in CD-1 mouse hepatocytes treated with 1-(6-(4-fluorobenzyl)-3,3-dimethyl-2,3-dihydro-1H-pyrrolo[3,2-b]pyridin-1-yl)-2-((2R,5R)-5-methyl-2-(((R)-3-methylmorpholino)methyl)piperazin-1-yl)ethanone at 10 uM up to 90 mins by LC-MS analysis; format: ADME, cell-based, Hepatocyte
[26] = Drug level in human hepatocytes treated with 1-(6-(4-fluorobenzyl)-3,3-dimethyl-2,3-dihydro-1H-pyrrolo[3,2-b]pyridin-1-yl)-2-((2R,5R)-5-methyl-2-(((R)-3-methylmorpholino)methyl)piperazin-1-yl)ethanone at 10 uM up to 90 mins by LC-MS analysis; format: ADME, cell-based, Hepatocyte
[27] = Drug level in cynomolgus monkey hepatocytes treated with 1-(6-(4-fluorobenzyl)-3,3-dimethyl-2,3-dihydro-1H-pyrrolo[3,2-b]pyridin-1-yl)-2-((2R,5R)-5-methyl-2-(((R)-3-methylmorpholino)methyl)piperazin-1-yl)ethanone at 10 uM up to 90 mins by LC-MS analysis; format: ADME, cell-based, Macaca fascicularis, Hepatocyte

Sequence of hERG (KCNH2) (Q12809 whole entry): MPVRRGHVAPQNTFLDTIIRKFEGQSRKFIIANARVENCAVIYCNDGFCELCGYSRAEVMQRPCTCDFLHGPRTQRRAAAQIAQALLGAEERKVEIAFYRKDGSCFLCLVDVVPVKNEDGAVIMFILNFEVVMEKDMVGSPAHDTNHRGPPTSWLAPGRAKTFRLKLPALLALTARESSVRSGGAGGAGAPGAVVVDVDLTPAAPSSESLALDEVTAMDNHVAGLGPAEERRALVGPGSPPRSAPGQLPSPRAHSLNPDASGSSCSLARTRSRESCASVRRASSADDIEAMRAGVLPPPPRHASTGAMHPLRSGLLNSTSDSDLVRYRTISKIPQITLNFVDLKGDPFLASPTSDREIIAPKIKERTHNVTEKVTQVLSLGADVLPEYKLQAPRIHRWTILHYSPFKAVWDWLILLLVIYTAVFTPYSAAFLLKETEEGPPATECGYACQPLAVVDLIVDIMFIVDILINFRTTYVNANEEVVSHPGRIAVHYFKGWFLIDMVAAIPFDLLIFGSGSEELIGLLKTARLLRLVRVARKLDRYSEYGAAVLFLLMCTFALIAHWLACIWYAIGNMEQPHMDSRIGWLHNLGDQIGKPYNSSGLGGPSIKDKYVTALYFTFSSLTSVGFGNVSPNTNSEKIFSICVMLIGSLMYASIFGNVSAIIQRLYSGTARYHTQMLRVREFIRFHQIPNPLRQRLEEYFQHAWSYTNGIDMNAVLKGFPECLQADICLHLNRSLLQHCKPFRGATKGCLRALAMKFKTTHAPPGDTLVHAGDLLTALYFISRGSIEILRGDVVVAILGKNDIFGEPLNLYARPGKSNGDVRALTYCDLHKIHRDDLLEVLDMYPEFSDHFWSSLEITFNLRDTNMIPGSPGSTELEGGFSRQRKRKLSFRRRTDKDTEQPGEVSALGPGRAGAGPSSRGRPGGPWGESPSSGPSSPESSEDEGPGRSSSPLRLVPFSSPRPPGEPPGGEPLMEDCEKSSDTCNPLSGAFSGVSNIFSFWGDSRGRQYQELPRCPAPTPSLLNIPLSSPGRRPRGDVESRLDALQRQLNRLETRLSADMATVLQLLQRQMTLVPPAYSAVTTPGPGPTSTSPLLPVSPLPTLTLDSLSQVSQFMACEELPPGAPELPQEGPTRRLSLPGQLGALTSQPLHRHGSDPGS
Sequence of CYP3A4 (P08684 whole entry): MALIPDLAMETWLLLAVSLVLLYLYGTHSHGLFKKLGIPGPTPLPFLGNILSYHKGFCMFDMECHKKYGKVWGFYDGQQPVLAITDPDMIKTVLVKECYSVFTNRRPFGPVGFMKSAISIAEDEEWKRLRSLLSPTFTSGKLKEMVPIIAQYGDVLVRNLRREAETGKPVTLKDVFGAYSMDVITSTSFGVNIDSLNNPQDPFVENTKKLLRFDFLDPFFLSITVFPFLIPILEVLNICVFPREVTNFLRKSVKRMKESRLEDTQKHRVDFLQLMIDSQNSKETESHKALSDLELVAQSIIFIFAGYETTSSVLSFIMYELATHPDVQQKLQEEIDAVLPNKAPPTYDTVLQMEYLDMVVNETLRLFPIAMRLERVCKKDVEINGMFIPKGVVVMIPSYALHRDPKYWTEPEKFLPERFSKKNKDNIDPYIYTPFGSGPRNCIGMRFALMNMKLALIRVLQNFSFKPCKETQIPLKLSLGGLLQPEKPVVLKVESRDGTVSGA

chromatographic logD [1]: 2.9
bioavailability [2]: 31%
bioavailability [3]: 13%
SMILES: C[C@@H]1CN(CC(=O)N2CC(C)(C)c3ncc([C@@H](O)c4ccc(F)cc4)cc32)[C@@H](CN2[C@H](C)COC[C@H]2C)CN1

clearance [4]: 26 mL/min/kg
Vd [5]: 12 L/kg
Cmax [6]: 47 ng/mL
Cmax [7]: 22 ng/mL
bioavailability [8]: 24%
CL [9]: < 50%
Papp at 1 h, 10 µM [10]: 1.1 ×10⁻⁶ cm/s
Stability [11]: Stable
Drug metabolism [12]: Metabolite_Notdetected
Drug metabolism [13]: Metabolite_Notdetected
Drug metabolism [14]: Metabolite_Notdetected
Drug metabolism [15]: Metabolite_Detected
Drug metabolism [16]: Metabolite_Detected
Drug metabolism [17]: Metabolite_Notdetected
Drug metabolism [18]: Metabolite_Detected
bioavailability [3]: 2%
clearance [19]: 17 mL/min/kg
Vd [20]: 3.7 L/kg
SMILES: C[C@@H]1CN(CC(=O)N2CC(C)(C)c3ncc(Cc4ccc(F)cc4)cc32)[C@@H](CN2CCOC[C@H]2C)CN1

Drug uptake [21]: Active
SMILES: C[C@@H]1CN(CC(=O)N2CC(C)(C)c3nc(CO)c(Cc4ccc(F)cc4)cc32)[C@@H](CN2CCOC[C@H]2C)CN1.Cl.Cl

chromatographic logD [1]: 3.1
IC50 [22]: 2.9 nM
half-life at 40 min, 1 µM [24]: 41 min
SMILES: C[C@@H]1CN(CC(=O)N2CC(C)(C)c3nnc(Cc4ccc(F)cc4F)cc32)[C@@H](CN2Cc3ccc(F)cc3C2=O)CN1
inhibition at 10 min, 30 µM [23]: 18%

IC50 [22]: 16 nM
half-life at 40 min, 1 µM [24]: 38 min
SMILES: C[C@@H]1CN(CC(=O)N2CC(C)(C)c3nnc(Cc4ccc(F)cc4)cc32)[C@@H](CN2Cc3ccccc3C2=O)CN1
inhibition at 10 min, 30 µM [23]: 12%

IC50 [22]: 7.8 nM
SMILES: CN[C@@H](C)C(=O)N[C@H](C(=O)N1CCC[C@H]1c1nc(C(=O)c2ccc(F)cc2)cs1)C1CCCCC1 [LCL-161]

chromatographic logD [1]: 3.2
SMILES: C[C@@H]1CN(CC(=O)N2CC(C)(C)c3c2cc(Cc2ccc(F)cc2)c(=O)n3C)[C@@H](CN2[C@H](C)COC[C@H]2C)CN1

bioavailability [2]: 31%
bioavailability [3]: 13%
SMILES: C[C@@H]1CN(CC(=O)N2CC(C)(C)c3ncc([C@H](O)c4ccc(F)cc4)cc32)[C@@H](CN2[C@H](C)COC[C@H]2C)CN1

Drug uptake [25]: Active
Drug uptake [26]: Active
Drug uptake [27]: Active
SMILES: C[C@@H]1CN(CC(=O)N2CC(C)(C)c3ncc(Cc4ccc(F)cc4)cc32)[C@@H](CNCCO)CN1

chromatographic logD [1]: 2.7
IC50 [22]: 0.59 nM
half-life at 40 min, 1 µM [24]: > 70 min
SMILES: C[C@@H]1CN(CC(=O)N2CC(C)(C)c3nnc(Cc4ccc(F)cc4F)cc32)[C@@H](CN2Cc3c(F)cccc3C2=O)CN1
inhibition at 10 min, 30 µM [23]: 28%
